Assay results as given in patent US20250304608A1, “PHOSPHORUS COMPOUND AND USE THEREOF” (SHANGHAI SHIJIANG BIOTECHNOLOGY CO., LTD., priority 2022, published 2025).
pIC50: −log10 of the molar value.

How the values were obtained:
[1] = tested on: Daoy cell transfected with virus vector carrying shRNA that induces degradation of PPIF mRNA; assay: TMRM mitochondria membrane potential in Daoy cell transfected with PPIF shRNA; type: cell-based, human; conditions: H2O2 +, CsA −, untreated = 100
[2] = tested on: Daoy cell transfected with empty virus vector without carrying shRNA; assay: TMRM mitochondria membrane potential in Daoy cell transfected with empty virus vector (Con shRNA); type: cell-based, human; conditions: H2O2 +, CsA −, untreated = 100
Daoy cell = assay: TMRM mitochondria membrane potential in Daoy cell after CsA / H2O2 treatment; type: cell-based, human; conditions: untreated = 100
Text: The mitochondria permeability transition pore (mPTP) was a non-specific channel on the inner membrane of mitochondria, which could allow small molecules with molecular less than 1.5KD to pass freely, and its activity was affected by peroxides (such as H2O2), pH and calcium ions in mitochondria. […] For cells with active mitochondria permeability transition pore, adding peroxide (such as H2O2) could increase the activity of mitochondria permeability transition pore, resulting in a decrease in mitochondna membrane potential.

mPTP-active Daoy cell = assay: CellTiter-Glo cell viability inhibition, mPTP-active Daoy cell; type: cell-based; conditions: Homo sapiens; Daoy cell transfected with empty virus vector; CellTiter-Glo; read-out: mPTP-active Daoy cell (IC50)
mPTP-inactive Daoy cell = assay: CellTiter-Glo cell viability inhibition, mPTP-inactive Daoy cell; type: cell-based; conditions: Homo sapiens, Daoy cell transfected with PPIF shRNA vector
Con-NCI-H82 cell = assay: CellTiter-Glo cell viability inhibition, Con-NCI-H82 cell; type: cell-based; conditions: Homo sapiens, NCI-H82 cell transfected with empty virus vector
Text: (§1) The expression of NNMT protein in NCI-H82 cell was overexpressed by inserting the NNMT gene into NCI-H82 cell using a viral vector, and the NNMT protein-overexpressing NCI-H82 cell (ov-NNMT NCI-H82 cell) was obtained. The control NCI-H82 cell (Con-NCI-H82 cell) was obtained by transfecting NCI-H82 cell with empty virus vector without carrying NNMT gene. The expressing content of NNMT protein in the Con-NCI-H82 cell and ov-NNMT NCI-H82 cell was detected using Western Blot assay (as shown in FIG. 3), it could be seen from FIG. 3 that the NNMT protein was overexpressed in the ov-NNMT NCI-H82 cell compared with the expression level of NNMT protein in the Con-NCI-H82 cell.

ov-NNMT NCI-H82 cell = assay: CellTiter-Glo cell viability inhibition, ov-NNMT NCI-H82 cell; type: cell-based; conditions: Homo sapiens, NCI-H82 cell overexpressing NNMT protein
Text: as §1

OO [Compound H2O2, H2O2]
Relative TMRM signal intensity (%), mean value [1]: 95%
Relative TMRM signal intensity (%), mean value [2]: 79%
Relative TMRM signal intensity (%) in Daoy cell, mean value (Daoy cell): 82%

Cn1cc2c([P+](c3ccccc3)(c3ccccc3)c3cccc4c3ccn4C)cccc2n1 [AB35574]
pIC50 (mPTP-active Daoy cell): 5.08
pIC50 (mPTP-inactive Daoy cell): 5.61
IC50 (Con-NCI-H82 cell): 0.41 µM
IC50 (ov-NNMT NCI-H82 cell): 2.56 µM

COc1ccc([P+](c2ccc(OC)cc2)(c2cccc3[nH]ccc23)c2cccc3[nH]ncc23)cc1 [AB36498]
pIC50 (mPTP-active Daoy cell): 5.18
pIC50 (mPTP-inactive Daoy cell): 5.88
IC50 (Con-NCI-H82 cell): 1.01 µM
IC50 (ov-NNMT NCI-H82 cell): 3.43 µM

c1ccc([P+](c2ccccc2)(c2ccncc2)c2cccc3[nH]ccc23)cc1 [AB35474]
pIC50 (mPTP-active Daoy cell): 4.74
pIC50 (mPTP-inactive Daoy cell): 5.61
IC50 (Con-NCI-H82 cell): 3.66 µM
IC50 (ov-NNMT NCI-H82 cell): 13.6 µM

COc1ccc([P+](c2ccc(OC)cc2)(c2ccc3[nH]ccc3n2)c2cccc3c2ccn3CCN2CCOCC2)cc1 [AB36459]
pIC50 (mPTP-active Daoy cell): 5.81
pIC50 (mPTP-inactive Daoy cell): 6.49
IC50 (Con-NCI-H82 cell): 0.48 µM
IC50 (ov-NNMT NCI-H82 cell): 2.09 µM

c1ccc([P+](c2ccccc2)(c2cnc3[nH]ccc3c2)c2cccc3[nH]ccc23)cc1 [AB35563]
pIC50 (mPTP-active Daoy cell): 5.82
pIC50 (mPTP-inactive Daoy cell): 6.25
IC50 (Con-NCI-H82 cell): 0.46 µM
IC50 (ov-NNMT NCI-H82 cell): 2.09 µM

c1ccc([P+](c2ccccc2)(c2cccnc2)c2ccc3cc[nH]c3c2)cc1 [AB35472]
pIC50 (mPTP-active Daoy cell): 4.42
pIC50 (mPTP-inactive Daoy cell): 4.97
IC50 (Con-NCI-H82 cell): 8.11 µM
IC50 (ov-NNMT NCI-H82 cell): 19.4 µM

c1ccc([P+](c2ccccc2)(c2ccc3[nH]ccc3c2)c2ccc3[nH]ccc3c2)cc1 [AB35451]
pIC50 (mPTP-active Daoy cell): 5.91
pIC50 (mPTP-inactive Daoy cell): 6.55
IC50 (Con-NCI-H82 cell): 0.13 µM
IC50 (ov-NNMT NCI-H82 cell): 0.96 µM

c1ccc([P+](c2ccccc2)(c2cccc3[nH]ncc23)c2cccc3[nH]ncc23)cc1 [AB35480]
pIC50 (mPTP-active Daoy cell): < 4.30
pIC50 (mPTP-inactive Daoy cell): 5.20
IC50 (Con-NCI-H82 cell): 13.8 µM
IC50 (ov-NNMT NCI-H82 cell): 40.1 µM

c1ccc([P+](c2ccccc2)(c2ccccc2)c2ccc3c(ccn3CCN3CCOCC3)c2)cc1 [AB35576]
pIC50 (mPTP-active Daoy cell): 5.80
pIC50 (mPTP-inactive Daoy cell): 6.34
IC50 (Con-NCI-H82 cell): 0.51 µM
IC50 (ov-NNMT NCI-H82 cell): 2.93 µM

c1ccc([P+](c2ccccc2)(c2ccncc2)c2ccc3cc[nH]c3c2)cc1 [AB35479]
pIC50 (mPTP-active Daoy cell): 4.60
pIC50 (mPTP-inactive Daoy cell): 5.19
IC50 (Con-NCI-H82 cell): 6.36 µM
IC50 (ov-NNMT NCI-H82 cell): 25.5 µM

C(=C\C[P+](c1ccccc1)(c1ccccc1)c1ccccc1)/C[P+](c1ccccc1)(c1ccccc1)c1ccccc1 [SJ00001]
pIC50 (mPTP-active Daoy cell): 5.43
pIC50 (mPTP-inactive Daoy cell): 5.46
IC50 (Con-NCI-H82 cell): 0.68 µM
IC50 (ov-NNMT NCI-H82 cell): 0.79 µM

c1ccc([P+](c2ccccc2)(c2ccc3[nH]ccc3c2)c2cnc3[nH]ccc3c2)cc1 [AB35537]
pIC50 (mPTP-active Daoy cell): 5.65
pIC50 (mPTP-inactive Daoy cell): 6.10
IC50 (Con-NCI-H82 cell): 0.51 µM
IC50 (ov-NNMT NCI-H82 cell): 2.33 µM

c1ccc([P+](c2ccccc2)(c2ccc3[nH]ccc3c2)c2cc3[nH]ccc3cn2)cc1 [AB36405]
pIC50 (mPTP-active Daoy cell): 5.26
pIC50 (mPTP-inactive Daoy cell): 5.72
IC50 (Con-NCI-H82 cell): 0.98 µM
IC50 (ov-NNMT NCI-H82 cell): 3.72 µM

COc1ccc([P+](c2ccc(OC)cc2)(c2cccc3nn(C)cc23)c2cccc3nn(C)cc23)cc1 [AB36471]
pIC50 (mPTP-active Daoy cell): 5.20
pIC50 (mPTP-inactive Daoy cell): 5.83
IC50 (Con-NCI-H82 cell): 2.86 µM
IC50 (ov-NNMT NCI-H82 cell): 11 µM

Cn1ccc2c([P+](c3ccccc3)(c3ccccc3)c3ccccc3)cccc21 [AB35573]
pIC50 (mPTP-active Daoy cell): 5.90
pIC50 (mPTP-inactive Daoy cell): 6.62
IC50 (Con-NCI-H82 cell): 0.14 µM
IC50 (ov-NNMT NCI-H82 cell): 1.37 µM

c1ccc([P+](c2ccccc2)(c2cccc3[nH]ccc23)c2cncc3[nH]ccc23)cc1 [AB35452]
pIC50 (mPTP-active Daoy cell): 5.27
pIC50 (mPTP-inactive Daoy cell): 6.09
IC50 (Con-NCI-H82 cell): 0.63 µM
IC50 (ov-NNMT NCI-H82 cell): 2.34 µM

CCCCCCCCCCCCCC[P+](c1ccccc1)(c1ccccc1)c1ccccc1 [SJ00006]
pIC50 (mPTP-active Daoy cell): 6.54
pIC50 (mPTP-inactive Daoy cell): 6.47
IC50 (Con-NCI-H82 cell): 0.13 µM
IC50 (ov-NNMT NCI-H82 cell): 0.14 µM

COc1ccc([P+](c2ccccc2)(c2ccccc2)c2cccc3[nH]ccc23)cc1 [AB36513]
pIC50 (mPTP-active Daoy cell): 5.71
pIC50 (mPTP-inactive Daoy cell): 6.42
IC50 (Con-NCI-H82 cell): 0.11 µM
IC50 (ov-NNMT NCI-H82 cell): 0.86 µM

C1=C([P+](c2ccccc2)(c2ccccc2)c2ccccc2)CCOC1 [AB36546]
pIC50 (mPTP-active Daoy cell): 4.46
pIC50 (mPTP-inactive Daoy cell): 5.14
IC50 (Con-NCI-H82 cell): 4.72 µM
IC50 (ov-NNMT NCI-H82 cell): 10.5 µM

c1ccc([P+](c2ccccc2)(c2ccccc2)c2cccc3ccoc23)cc1 [AB36536]
pIC50 (mPTP-active Daoy cell): 5.86
pIC50 (mPTP-inactive Daoy cell): 6.51
IC50 (Con-NCI-H82 cell): 0.56 µM
IC50 (ov-NNMT NCI-H82 cell): 1.89 µM

Brc1c(C[P+](c2ccccc2)(c2ccccc2)c2ccccc2)[nH]c2ccccc12 [AB36542]
pIC50 (mPTP-active Daoy cell): 5.08
pIC50 (mPTP-inactive Daoy cell): 5.43
IC50 (Con-NCI-H82 cell): 3.25 µM
IC50 (ov-NNMT NCI-H82 cell): 9.22 µM

Cn1ccc2cc([P+](c3ccccc3)(c3ccccc3)c3ccccc3)ccc21 [AB35571]
pIC50 (mPTP-active Daoy cell): 5.86
pIC50 (mPTP-inactive Daoy cell): 6.57
IC50 (Con-NCI-H82 cell): 0.19 µM
IC50 (ov-NNMT NCI-H82 cell): 1.43 µM

c1ccc([P+](c2ccccc2)(c2ccc3cc[nH]c3c2)c2cnc3cc[nH]c3c2)cc1 [AB35549]
pIC50 (mPTP-active Daoy cell): 4.98
pIC50 (mPTP-inactive Daoy cell): 5.41
IC50 (Con-NCI-H82 cell): 3.18 µM
IC50 (ov-NNMT NCI-H82 cell): 9.57 µM

COc1ccc([P+](c2ccc(OC)cc2)(c2cccc3nn(C)cc23)c2cccc3c2cnn3C)cc1 [AB36445]
pIC50 (mPTP-active Daoy cell): 4.86
pIC50 (mPTP-inactive Daoy cell): 5.52
IC50 (Con-NCI-H82 cell): 6.92 µM
IC50 (ov-NNMT NCI-H82 cell): 18.3 µM

c1ccc([P+](c2ccccc2)(c2ccc3cc[nH]c3c2)c2ccc3cn[nH]c3c2)cc1 [AB35538]
pIC50 (mPTP-active Daoy cell): 5.23
pIC50 (mPTP-inactive Daoy cell): 5.77
IC50 (Con-NCI-H82 cell): 0.97 µM
IC50 (ov-NNMT NCI-H82 cell): 3.86 µM

c1ccc([P+](c2ccccc2)(c2ccccc2)c2cccc3cc[nH]c23)cc1 [AB35449]
pIC50 (mPTP-active Daoy cell): 5.15
pIC50 (mPTP-inactive Daoy cell): 5.61
IC50 (Con-NCI-H82 cell): 2.17 µM
IC50 (ov-NNMT NCI-H82 cell): 6.47 µM

COc1ccc([P+](c2ccc(OC)cc2)(c2ccc(OC)cc2)c2cccc3c2ccn3C)cc1 [AB36411]
pIC50 (mPTP-active Daoy cell): 6.28
pIC50 (mPTP-inactive Daoy cell): 6.17
IC50 (Con-NCI-H82 cell): 0.17 µM
IC50 (ov-NNMT NCI-H82 cell): 0.16 µM

COc1ccc([P+](c2ccc(OC)cc2)(c2ccc(OC)cc2)c2cccc3[nH]ccc23)cc1 [AB35527]
pIC50 (mPTP-active Daoy cell): 5.92
pIC50 (mPTP-inactive Daoy cell): 6.60
IC50 (Con-NCI-H82 cell): 0.36 µM
IC50 (ov-NNMT NCI-H82 cell): 1.45 µM

c1ccc([P+](c2ccccc2)(c2cccc3[nH]ccc23)c2cccc3[nH]ncc23)cc1 [AB35482]
pIC50 (mPTP-active Daoy cell): 5.40
pIC50 (mPTP-inactive Daoy cell): 6.21
IC50 (Con-NCI-H82 cell): 0.41 µM
IC50 (ov-NNMT NCI-H82 cell): 2.13 µM

c1ccc([P+](c2ccccc2)(c2ccccc2)c2cccc3cn[nH]c23)cc1 [AB36511]
pIC50 (mPTP-active Daoy cell): 4.87
pIC50 (mPTP-inactive Daoy cell): 5.39
IC50 (Con-NCI-H82 cell): 3.32 µM
IC50 (ov-NNMT NCI-H82 cell): 9.74 µM

Cn1ccc2c([P+](c3ccccc3)(c3ccccc3)c3cccc4[nH]ccc34)cccc21 [AB35564]
pIC50 (mPTP-active Daoy cell): 6.41
pIC50 (mPTP-inactive Daoy cell): 7.30
IC50 (Con-NCI-H82 cell): 0.13 µM
IC50 (ov-NNMT NCI-H82 cell): 1.32 µM
